# Experimental data published in patent publication US10308939B2, “Use of an miRNA to reduce proliferation of a cancer cell” (Board of Supervisors of Louisiana State University and …, priority 2014, dated 2019).
# Tests used:
# Assay type in all cases: cell-based, human
# miR-3189-3p = assay: qRT-PCR of miR-3189-3p expression in drug-treated LN-229 cells; settings: for miR-3189-3p relative expression compared to untreated cells: LN-229, 48 h (FIG. 6E)
# Method: (§1) Quantitative RT-PCR: Total RNA was isolated using the miRVana miRNA extraction kit (Ambion, Austin, Tex., USA). RNA was reverse transcribed using the High Capacity cDNA Reverse Transcription kit for mRNAs or TaqMan assays for microRNAs (Applied Biosystems, Carlsbad, Calif.). Quantitative real-time PCR was performed in duplicate using a Roche LightCycler 480 Real-Time PCR System (Indianapolis, Ind., USA). Each sample was normalized using GAPDH or RNU6B control (ΔCt) and relative quantification of gene expression was calculated using the comparative Ct (2^−ΔΔCt) method, as described in (Eletto et al., (2008) J. Cell. Physiol. 216: 764-770; Pacifici et al., (2013) J. Cell. Physiol. 228: 1070-1075; Rom et al., (2010) FASEB J. 24: 2292-2300 incorporated herein by reference in their entireties). For the clinical samples relative quantification was represented as 1/ΔCt to maintain real differences in Ct values between samples.
# GDF15 mRNA [1] = assay: qRT-PCR of GDF15 expression in drug-treated LN-229 cells
# Method: as §1
# (§2) To further analyze the effects of fenofibrate on this gene, the human glioblastoma cell lines, LN-229 and U87MG were exposed to 50 μM fenofibrate and monitored the expression of GDF15 at 24 and 48 h time points. […] Following the treatment, total RNA was extracted and subjected to quantitative real-time PCR (qRT-PCR) using GDF15-specific and GAPDH-specific primers. The results in FIG. 6A show a 60- and 35-fold up-regulation of GDF15 gene expression in the two cell lines.
# Ago2 immunocomplexes = assay: RNA-binding protein immunoprecipitation (RIP) with Ago2 antibody; settings: extracts from FF-treated LN-229 cells
# Method: RNA-Binding Protein Immunoprecipitation (RIP): RIP assay was performed using Argonaute 2 (Ago2) antibody from Millipore (RIPAb+Ago2 RIP). This kit included negative control mouse IgG antibody and control primers specific for human FOS, which were utilized for the optimization of Ago2-IP in the cellular model. The RIP Ago-IP was performed essentially as previously described (Curtale et al., (2013) Proc. Nat. Acad. Sci. U.S.A. 110: 11499-11504). In brief, 10×10^6 LN-229 cells were used for Ago2-IP and for the IgG isotype control; 2×10^6 cells were used for the extraction of total RNA and for total protein lysates. The cell monolayer was washed twice with cold PBS, and lysed in 500 μl of Lysis Buffer (150 mM KCl, 25 mM Tris-HCl pH 7.4, 5 mM EDTA, 0.5% NP40, 5 mM DTT) supplemented with 10 mM Protease Inhibitor Cocktail, 10 mM PMSF, 10 mM Phosphatase Inhibitor, 10 mM Na3VO4 and 100 U/ml RNase Inhibitor (Applied Biosystems). After 30 min of incubation on ice, lysates were centrifuged for 30 min at 14,000 rpm at 4° C. in a microcentrifuge. 30 μL of Protein A/G Magnetic Beads (Pierce, Thermo Scientific, Waltham, Mass.) were washed three times with Blocking Solution (0.5% BSA dissolved in DPBS+/+) and incubated for 1 h at 4° C. with 5 μg of anti-Ago2 mouse monoclonal IgG1κ or with isotype IgG1κ control antibodies (Millipore). The immunocomplexes were washed three times with Blocking Solution. […]
# GDF15 [2] = assay: Western blot of GDF15 protein in fenofibrate-treated LN-229 cells; settings: LN-229, fenofibrate treatment
# Method: (§3) Western Blot Analysis: Cells were collected by gently scraping in the presence of PBS (Gibco, Life Technologies), followed by centrifugation and disruption of the cell pellet in lysis buffer (50 mM HEPES, pH 7.5, 150 mM NaCl, 1.5 mM MgCl2, 1 mM EGTA, pH 8.4, 10% glycerol, 1% Triton X-100, 1 mM PMSF, 1 mM sodium orthovanadate (NA3VO4), Phosphatase and Protease Inhibitor Cocktails (Sigma). Whole-cell lysates (30 to 70 μg) were separated on a 4-15% SDS-PAGE gel (Bio-Rad, Hercules, Calif.). GDF15 and E2F-1 antibodies were purchased from Cell Signaling Technology (Beverly, Mass.). The antibody to detect p63RhoGEF was obtained from GeneTex (Irvine, Calif.). GDF15 antibody was purchased from R&D Systems (Minneapolis, Minn.), and anti-GRB2 was from BD Transduction Laboratories (San Jose, Calif.). SF3B2 and 14-3-3ζ antibodies were obtained from Santa Cruz Biotechnology.
# GDF15 mRNA [3] = assay: qRT-PCR of GDF15 expression in fenofibrate-treated U87MG cells; settings: 50 μM, 24 and 48 h time points
# Method: as §1
# as §2, with “The results in FIG. 6A show a 60- and 35-fold up-regulation of GDF15 gene expression in the two cell lines.” left out
# miR-3189-5p = assay: qRT-PCR of miR-3189-5p expression in fenofibrate-treated LN-229 and U87MG cells; settings: fenofibrate treatment, 48 h
# Method: as §1
# GDF15 [4] = assay: ELISA of secreted mature GDF15 in LN-229 culture medium; settings: LN-229, 48 h following treatment
# Method: ELISA Assay: Mature GDF15 was detected in the cell culture medium using the GDF15 Quantikine ELISA kit from R&D Systems (Minneapolis, Minn.), according to the manufacturer's instructions. Sample absorbance was measured at 450 nm using a Bio-Rad Benchmark Plus microplate reader.
# SF3B2 mRNA = assay: qRT-PCR of SF3B2 mRNA in transfected LN-229 and U87MG cells; settings: co-expressed with miR-3189-3p
# Method: as §1
# LN-229 and U87MG cells = assay: Cell proliferation assay (MTS)
# Method: For transfection experiments, cells were seeded at a density of 4×10^5 cells/60 mm dish or 2.5×10^4 cells/well in 12-well plates, and transfected using Lipofectamine 2000 (Life Technologies, Grand Island, N.Y.) per manufacturer's instructions. SF3B2 and p63RhoGEF siRNAs and controls were purchased from Santa Cruz (Santa Cruz, Calif.), and were used at the final concentration of 10 nM. Human PPARα siRNA was the ON-TARGET plus SMART pool from Thermo Scientific Dharmacon (Lafayette, Colo.), and it was used at the final concentration of 100 nM. The PPARα […] WY146,43 was from Cayman Chemical (St. Louis, Mo.). For the transient transfection experiments, cells were seeded at a density of 4×10^5 cells/60 mm dish or 2.5×10^4 cells/well in 12-well plates, and transfected using Lipofectamine 2000 reagent (Life Technologies) per manufacturer's instructions.
# At 72 h after transfection, cells were incubated with medium containing 3-(4,5-dimethylthiazol-2-yl)-5-(3-carboxymethoxyphenyl)-2-(4-sulfophenyl)-2H-tetrazolium (MTS) reagent (Promega) diluted according to manufacturer's instructions. Cells were then incubated at 37° C. for 30-60 min and absorbance was measured at a wavelength of 490 nm using a Bio-Rad Benchmark Plus microplate reader.
# p63RhoGEF 3′UTR = assay: Dual luciferase assay, psiCHECK2/p63RhoGEF 3′UTR in LN-229 cells; settings: co-transfected with miR-3189-3p mimic
# Excerpt: (§4) Cloning for microRNA Functional Analysis: The genomic sequence corresponding to the 3′UTR of p63RhoGEF was PCR amplified from LN-229 cells. This PCR product was ligated into the multiple cloning sites downstream of the Renilla luciferase reporter gene in the psiCHECK-2 vector (Promega, Madison, Wis.). This vector also contains a firefly luciferase reporter sequence, which allows for normalization of transfection efficiency. The primers used were: forward, 5′-[…] (SEQ ID NO: 7), containing the XhoI restriction site (underlined) and reverse, 5′-[…] (SEQ ID NO: 8), containing the NotI restriction site (underlined). The genomic sequence corresponding to the 3′UTR of SF3B2 was also cloned into the psiCHECK-2 vector. The primers used were: forward, 5′-[…] (SEQ ID NO: 9), containing the XhoI restriction site (underlined) and reverse, 5′-[…] (SEQ ID NO: 10) containing the NotI restriction site (underlined).
# (§5) The oligonucleotides for the mutagenesis of p63RhoGEF sites were as follows: site 1 forward, 5′-[…] (SEQ ID NO: 11), site 2 forward, 5′-[…] (SEQ ID NO: 12), and site 3 forward, 5′-[…] (SEQ ID NO: 13). […]
# (§6) After 24 h, cells were harvested and lysates were assayed for luciferase activity with the Dual-Luciferase Reporter Assay System (Promega) using a Synergy 2 microplate reader (BioTek Instruments, Inc., Winooski, Vt.). […]
# SF3B2 3′UTR = assay: Dual luciferase assay, psiCHECK2/SF3B2 3′UTR in LN-229 cells; settings: co-transfected with miR-3189-3p mimic
# Excerpt: as §4, §5, §6
# p63RhoGEF mRNA = assay: qRT-PCR of p63RhoGEF mRNA in transfected LN-229 and U87MG cells; settings: co-expressed with miR-3189-3p
# Method: as §1
# LN-229 cells = assay: Rescue from fenofibrate-induced cell death; settings: LN-229 cells treated with fenofibrate
# E2F-1 = assay: Western blot of E2F-1 protein in LN-229 cells; settings: co-transfected with miR-3189-3p
# Method: as §3
# [5] = 48 h after treatment/transfection, with fenofibrate
compound,measurement,setting,value
CC(=O)O[C@H]1C(=O)[C@@]2(C)[C@H]([C@H](OC(=O)c3ccccc3)[C@]3(O)C[C@H](OC(=O)[C@H](O)[C@@H](NC(=O)c4ccccc4)c4ccccc4)C(C)=C1C3(C)C)[C@]1(OC(C)=O)CO[C@@H]1C[C@@H]2O [paclitaxel],miR-3189-3p relative expression compared to untreated cells,miR-3189-3p,only in fenofibrate treated cells
"CC(C)OC(=O)C(C)(C)Oc1ccc(C(=O)c2ccc(Cl)cc2)cc1 [fenofibrate, propan-2-yl 2-{4-[(4-chlorophenyl)carbonyl]phenoxy}-2-methylpropanoate]",up-regulation of GDF15 gene expression,"GDF15 mRNA [1]; 50 μM, 24 and 48 h time points, LN-229",60 fold
same,GDF15 mRNA up-regulation relative to untreated cells,"GDF15 mRNA [1]; LN-229, 48 h, comparison with doxorubicin and paclitaxel (FIG. 6E)",more than 60 folds
same,overexpression of miR-3189-3p linked to Ago2 immunocomplexes compared to untreated cells,Ago2 immunocomplexes,~35 fold
same,GDF15 protein content,GDF15 [2],large increase
same,up-regulation of GDF15 gene expression,GDF15 mRNA [3],35 fold
same,miR-3189-3p relative expression compared to untreated cells,miR-3189-3p,4.8 fold
same,expression of miR-3189-5p,miR-3189-5p,did not change
same,secreted GDF15,GDF15 [4],significant levels
COc1cccc2c1C(=O)c1c(O)c3c(c(O)c1C2=O)C[C@@](O)(C(=O)CO)C[C@@H]3O[C@H]1C[C@H](N)[C@H](O)[C@H](C)O1 [doxorubicin],miR-3189-3p relative expression compared to untreated cells,miR-3189-3p,only in fenofibrate treated cells
"Cc1cccc(Nc2cc(Cl)nc(SCC(=O)O)n2)c1C [WY146,43]",impact on GDF15 levels triggered by fenofibrate,GDF15 mRNA [1]; [5],no significant impact
same,impact on miR-3189-3p levels triggered by fenofibrate,miR-3189-3p; [5],no significant impact
"anti-miR-3189-3p: miR-3189-3p mirVana miRNA inhibitor (SEQ ID NO: 22) purchased from Life Technologies (UGCCCCAUCUGUGCCCUGGGUAGGA; listed as RNA, chemistry not given here)",effect on miR-3189-3p downregulation of SF3B2 transcript,SF3B2 mRNA,counteracted
same,changes in proliferation and cell cycle on co-transfection with miR-3189-3p,LN-229 and U87MG cells; co-transfected with miR-3189-3p,No significant changes
same,effect on miR-3189-3p inhibition of p63RhoGEF 3′UTR reporter,p63RhoGEF 3′UTR,efficiently reverted
same,effect on miR-3189-3p inhibition of SF3B2 3′UTR reporter,SF3B2 3′UTR,almost completely alleviated
same,effect on miR-3189-3p downregulation of p63RhoGEF transcript,p63RhoGEF mRNA,counteracted
same,rescue from fenofibrate-induced cell death,LN-229 cells,did not rescue
same,effect on miR-3189-3p down-regulation of E2F-1,E2F-1,reversed
"miR-3189-5p: mature microRNA of 25 nucleotides from the miR-3189 stem-loop (SEQ ID NO: 21) (GUUGCCCCAUCUGUGCCCUGGGUAGGA; listed as RNA, chemistry not fully specified)","changes in cell morphology, cell proliferation and migration",LN-229 and U87MG cells; transfection of LN-229 and U87MG cells,"did not elicit changes in cell morphology, nor inhibited cell proliferation and migration"
